In patent publication US10322138B2, “Treatment of depressive disorders” (Pherin Pharmaceuticals, Inc., priority 2012, dated 2019):
Read-outs that look alike come from different tables or passages of the source.

Legend:
[1] = test system: isolated human nasal chemosensory neurons; experiment: Electrophysiology: inward currents in isolated nasal chemosensory neurons; assay type: cell-based
[2] = test system: nasal septal chemosensory epithelium; experiment: Electrophysiology: electrotonic depolarization of chemosensory epithelium; assay type: cell-based, human
estrogen receptors = experiment: In vitro agonist/antagonist activity on steroid receptors
androgen receptors = androgen receptors (Homo sapiens, UniProt P10275); experiment: as above
progestin receptors = progestin receptors (Homo sapiens, UniProt P06401); experiment: as above
glucocorticoid receptors = glucocorticoid receptors (Homo sapiens, UniProt P04150); experiment: as above
[3] = test system: receptors of indoleamine, monoamines, ion channels, receptors, peptides, opioid, glutamate neurotransmitter, steroid hormones, or glucocorticoid receptors; experiment: In vitro receptor affinity panel; assay type: binding
[4] = Ames reverse mutation assay
bone marrow = experiment: In vivo bone marrow micronucleus test
pregnant rats = experiment: Reproductive toxicity study; assay type: in vivo, rat; conditions: intravenous doses up to 2.5 mg/Kg/day during organogenesis
pregnant rabbits = experiment: Reproductive toxicity study; assay type: in vivo, rabbit; conditions: intravenous doses up to 2.5 mg/Kg/day during organogenesis
[5] = assay type: in vivo; conditions: rat, repeated intranasal doses at 10 mg/Kg
mice of both sexes = experiment: Intraperitoneal toxicity, 7-day observation; assay type: in vivo; conditions: intraperitoneal up to 200 mg/Kg
rats of both sexes = assay type: in vivo; conditions: intravenous 1 mg/Kg
mice = experiment: Intranasal and intravenous toxicity up to 2.5 mg/Kg; assay type: in vivo, mouse; conditions: intranasal and intravenous up to 2.5 mg/Kg
rats [6] = experiment: as above; assay type: in vivo, rat; conditions: intranasal and intravenous up to 2.5 mg/Kg
rabbits = experiment: as above; assay type: in vivo, rabbit; conditions: intranasal and intravenous up to 2.5 mg/Kg
dogs [7] = experiment: as above; assay type: in vivo, dog; conditions: intranasal and intravenous up to 2.5 mg/Kg
rats [8] = experiment: One-month intranasal toxicity; assay type: in vivo, rat; conditions: intranasal up to 50 μg/day for one month
dogs [9] = experiment: 28-day intranasal toxicity; assay type: in vivo, dog; conditions: intranasal up to 300 μg/day for 28 days
[10] = test system: healthy volunteers of both sexes; experiment: Pilot trials, nasal administration; assay type: in vivo, human
healthy individuals = experiment: Phase 1 open-label, flexible dose-escalation trial; assay type: in vivo, human
Procedure: In a Phase 1 open-label, flexible dose-escalation trial, the pregn-4-en-20-yn-3-one was formulated as an aqueous solution at 8 μg/mL, with 2% propylene glycol and 2% ethanol, and was administered with a Valois intranasal metered spray pump delivering 50 μL, so that the pregn-4-en-20-yn-3-one was administered at 400 ng/spray. The low-dose group received 400, 400, 1600, 1600, 2800, and 2800 ng/day over the six-day period of the trial, while the high-dose group received 4000, 4000, 5200, 5200, 6400, and 6400 ng/day over the six-day period of the trial. The trial enrolled 10 individuals, 7 male and 3 female, between 21 and 38 years old, healthy, free of any Axis I diagnosis according to the DSM-IV-TR, and not taking any central nervous system medications.

[11] = test system: individuals meeting the diagnostic criteria for MDD; experiment: Phase 2 three-arm, double-blind, randomized trial in MDD; assay type: in vivo, human; conditions: for decrease in average HRSD-17 score from baseline (standard deviation): eight weeks of treatment; for Cohen's d relative to placebo, HRSD-17 item 4 / Cohen's d relative to placebo, HRSD-17 score / decrease in HRSD-17 item 4 (initial insomnia) from baseline: eight weeks
Procedure: In a Phase 2 three-arm, double-blind, randomized trial, individuals received either placebo (a nasal solution containing no pregn-4-en-20-yn-3-one), 3200 ng/day of pregn-4-en-20-yn-3-one (“low dose”), or 6400 ng/day of pregn-4-en-20-yn-3-one (“high dose”), formulated and administered as in the Phase 1 trial. The placebo group and the low dose group administered two sprays per nostril twice/day, the high dose group administered two sprays per nostril four times/day. The trial enrolled 30 individuals, male and female between 18 and 60 years old, meeting the diagnostic criteria for MDD and free of any other Axis I diagnosis according to the DSM-IV-TR, non-suicidal, and not taking any central nervous system medications (including natural products such as St. John's wort). The individuals were required to have a minimum score on the Hamilton Rating Scale for Depression (HRSD-17), a 17-item scale designed for completion by a health professional following a structured interview with the individual, of at least 17, meaning that they were at least moderately depressed; and the primary efficacy criterion in the trial was reduction in HRSD-17 score from baseline.
The trial included ten weekly visits. At the first (screening) visit, the individuals were assessed for depression symptoms and randomized into treatment groups. […] At the second (baseline) visit, they were assessed, trained in self-administration of the nasal spray, and began self-administration of their trial medication. There were seven visits at which they were assessed while on treatment with their trial medication; and one follow-up visit one week after the end of medication administration at which they were given final assessments.
[Cohen's d is the mean difference between groups divided by the pooled standard deviation. For behavioral measures, a Cohen's d of 0.2 represents a small treatment effect; 0.5, a medium treatment effect; and 0.8, a large treatment effect.] […] HRSD-17 item 4 measures initial insomnia (difficulty in falling asleep early in the night), and is scored 0, for no difficulty falling asleep; 1, for complaints of occasional difficulty falling asleep, i.e. more than ½ hour; and 2, complaints of nightly difficulty falling asleep.

[12] = test system: individuals diagnosed with MDD and insomnia; conditions: cited from earlier work
[13] = Phase 1, intranasal 400-6400 ng/day over six days
[14] = escitalopram plus cognitive behavioral therapy for insomnia
[15] = escitalopram plus control quasi-desensitization therapy

glucocorticoid receptors, sequence (P04150 whole entry): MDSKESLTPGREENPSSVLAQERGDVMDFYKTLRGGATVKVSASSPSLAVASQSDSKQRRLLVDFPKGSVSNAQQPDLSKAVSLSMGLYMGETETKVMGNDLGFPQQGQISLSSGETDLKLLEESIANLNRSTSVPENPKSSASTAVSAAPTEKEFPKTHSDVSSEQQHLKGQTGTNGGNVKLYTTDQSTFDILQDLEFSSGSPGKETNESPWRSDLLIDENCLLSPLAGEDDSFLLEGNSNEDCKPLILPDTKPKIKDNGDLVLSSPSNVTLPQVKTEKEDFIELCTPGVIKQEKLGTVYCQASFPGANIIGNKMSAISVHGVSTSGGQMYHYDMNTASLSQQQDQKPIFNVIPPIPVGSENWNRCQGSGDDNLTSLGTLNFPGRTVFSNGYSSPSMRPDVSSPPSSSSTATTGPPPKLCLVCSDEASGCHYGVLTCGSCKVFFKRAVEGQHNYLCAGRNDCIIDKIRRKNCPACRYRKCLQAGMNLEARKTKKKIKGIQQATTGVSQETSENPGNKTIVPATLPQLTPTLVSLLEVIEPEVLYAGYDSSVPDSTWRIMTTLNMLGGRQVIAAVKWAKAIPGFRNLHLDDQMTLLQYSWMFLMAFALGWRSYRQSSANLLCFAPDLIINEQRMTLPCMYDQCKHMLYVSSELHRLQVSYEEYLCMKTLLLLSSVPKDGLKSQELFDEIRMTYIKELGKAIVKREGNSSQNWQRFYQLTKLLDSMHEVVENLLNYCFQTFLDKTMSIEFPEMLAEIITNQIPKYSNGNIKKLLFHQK
progestin receptors, sequence (P06401 whole entry): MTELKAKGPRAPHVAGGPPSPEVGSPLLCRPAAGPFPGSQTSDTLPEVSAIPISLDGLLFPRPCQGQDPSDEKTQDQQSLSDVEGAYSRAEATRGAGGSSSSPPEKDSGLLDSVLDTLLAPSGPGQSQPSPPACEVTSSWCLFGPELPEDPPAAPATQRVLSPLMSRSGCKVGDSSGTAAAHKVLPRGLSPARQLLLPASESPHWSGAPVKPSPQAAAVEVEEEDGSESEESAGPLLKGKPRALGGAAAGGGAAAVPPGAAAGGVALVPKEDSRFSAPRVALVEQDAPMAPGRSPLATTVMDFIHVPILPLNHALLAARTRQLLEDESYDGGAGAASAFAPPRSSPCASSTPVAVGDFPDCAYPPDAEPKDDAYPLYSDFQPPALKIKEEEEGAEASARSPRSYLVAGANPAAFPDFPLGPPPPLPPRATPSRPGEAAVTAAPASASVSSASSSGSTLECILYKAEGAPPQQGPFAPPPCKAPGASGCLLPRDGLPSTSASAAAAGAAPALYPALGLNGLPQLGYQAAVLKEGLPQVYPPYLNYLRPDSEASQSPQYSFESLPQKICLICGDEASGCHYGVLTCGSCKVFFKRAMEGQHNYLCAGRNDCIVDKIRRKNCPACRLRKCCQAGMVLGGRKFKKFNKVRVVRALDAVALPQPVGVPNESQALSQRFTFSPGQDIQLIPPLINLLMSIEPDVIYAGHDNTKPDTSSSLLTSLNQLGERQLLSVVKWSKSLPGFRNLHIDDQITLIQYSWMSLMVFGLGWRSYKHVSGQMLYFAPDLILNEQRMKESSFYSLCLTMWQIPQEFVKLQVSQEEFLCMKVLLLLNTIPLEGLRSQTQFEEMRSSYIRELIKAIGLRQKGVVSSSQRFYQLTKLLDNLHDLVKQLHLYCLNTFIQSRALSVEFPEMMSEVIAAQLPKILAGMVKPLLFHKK
androgen receptors, sequence (P10275 whole entry): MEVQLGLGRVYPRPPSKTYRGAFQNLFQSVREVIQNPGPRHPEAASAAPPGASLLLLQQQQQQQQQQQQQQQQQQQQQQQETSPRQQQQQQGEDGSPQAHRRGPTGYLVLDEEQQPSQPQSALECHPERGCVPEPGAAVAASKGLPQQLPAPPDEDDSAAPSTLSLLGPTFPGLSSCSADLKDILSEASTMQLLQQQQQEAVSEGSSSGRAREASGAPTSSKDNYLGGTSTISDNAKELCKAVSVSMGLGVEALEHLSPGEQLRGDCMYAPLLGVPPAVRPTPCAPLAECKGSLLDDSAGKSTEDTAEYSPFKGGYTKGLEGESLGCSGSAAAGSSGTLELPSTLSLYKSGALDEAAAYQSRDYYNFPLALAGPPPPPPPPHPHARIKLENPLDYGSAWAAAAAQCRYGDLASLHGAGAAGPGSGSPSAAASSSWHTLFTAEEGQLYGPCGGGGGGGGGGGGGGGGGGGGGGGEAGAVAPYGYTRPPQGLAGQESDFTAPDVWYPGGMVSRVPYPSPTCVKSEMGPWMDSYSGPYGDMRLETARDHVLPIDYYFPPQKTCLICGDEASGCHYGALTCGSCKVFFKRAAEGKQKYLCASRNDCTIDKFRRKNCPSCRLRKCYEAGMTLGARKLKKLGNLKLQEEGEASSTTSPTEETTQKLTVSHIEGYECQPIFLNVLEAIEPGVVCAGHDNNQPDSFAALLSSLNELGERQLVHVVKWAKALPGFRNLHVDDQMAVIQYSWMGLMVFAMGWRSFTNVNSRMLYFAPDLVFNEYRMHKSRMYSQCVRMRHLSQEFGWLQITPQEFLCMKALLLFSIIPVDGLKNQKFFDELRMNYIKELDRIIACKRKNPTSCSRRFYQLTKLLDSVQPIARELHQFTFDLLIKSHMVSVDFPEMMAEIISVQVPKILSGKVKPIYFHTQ

## C#C[C@H]1CC[C@H]2[C@@H]3CCC4=CC(=O)CC[C@]4(C)[C@H]3CC[C@]12C [pregn-4-en-20-yn-3-one, Pregn-4-en-20-yn-3-one]
[1]
  inward currents in isolated human nasal chemosensory neurons: induced inward currents
[1]; amplitude increased depending on concentration
  concentration of maximal response (amplitude): 10^−7 to 10^−5 M
[2]
  electrotonic depolarization of the nasal septal chemosensory epithelium: electrotonic depolarization
Estrogen receptors
  agonist or antagonist activity: no agonist or antagonist activity
Androgen receptors
  agonist or antagonist activity: no agonist or antagonist activity
Progestin receptors
  agonist or antagonist activity: no agonist or antagonist activity
Glucocorticoid receptors
  agonist or antagonist activity: no agonist or antagonist activity
[3]
  affinity for receptors: nor was there any affinity
[4]
  mutagenic or clastogenic potential: no evidence of mutagenic or clastogenic potential
Bone marrow
  mutagenic or clastogenic potential: no evidence of mutagenic or clastogenic potential
Pregnant rats
  adverse effects on maternal or litter parameters: no adverse effects on maternal or litter parameters
Pregnant rabbits
  adverse effects on maternal or litter parameters: no adverse effects on maternal or litter parameters
[5]
  systemic exposure: very low systemic exposure (below the limit of accurate quantitation)
Mice of both sexes
  macroscopic or microscopic changes in organs: no macroscopic or microscopic changes
Mice of both sexes; 7-day period
  mortality or adverse symptoms: no mortality or adverse symptoms
Rats of both sexes
  pathological changes: no pathological changes
Rats of both sexes; 8-day period
  changes in behavior: no changes in behavior
mice
  deaths, adverse clinical signs, physiological changes, clinical laboratory parameters: no deaths or adverse clinical signs, no physiological changes, or changes in clinical laboratory parameters
Rats [6]
  deaths, adverse clinical signs, physiological changes, clinical laboratory parameters: no deaths or adverse clinical signs, no physiological changes, or changes in clinical laboratory parameters
rabbits
  deaths, adverse clinical signs, physiological changes, clinical laboratory parameters: no deaths or adverse clinical signs, no physiological changes, or changes in clinical laboratory parameters
Dogs [7]
  deaths, adverse clinical signs, physiological changes, clinical laboratory parameters: no deaths or adverse clinical signs, no physiological changes, or changes in clinical laboratory parameters
Rats [8]
  deaths, adverse clinical signs, laboratory or pathology parameters: no deaths or adverse clinical signs or effects on laboratory or pathology parameters
Dogs [9]
  deaths, adverse clinical signs, laboratory or pathology parameters: no deaths or adverse clinical signs or effects on the laboratory or pathology parameters
[10]; intranasal
  change in heart rate: did not produce statistically significant change
  change in respiratory rate: did not produce statistically significant change
  duration of the QTC intervals of the electrocardiogram: did not change
  effect on alpha and beta frequency bands of electroencephalogram: did not have significant effect
  effect on body temperature: did not have significant effect
  frequency of electrodermal activity events (skin conductance): did significantly increase
[10]; nasal administration
  tolerability: well tolerated
Healthy individuals; Phase 1
  differences in clinical laboratory values, neuropsychological functioning, brain activity between doses or visits: No statistically significant differences
  differences in safety parameters between the three doses of each treatment group: no statistically significant differences
Healthy individuals; [13]
  most frequent adverse events: increased appetite, and dizziness in the high dose group
  serious adverse events: no serious adverse events
[11]; Phase 2, any of the groups
  serious adverse events: no serious adverse events reported
[11]; high dose 6400 ng/day intranasal
  decrease in average HRSD-17 score from baseline (standard deviation): 18.6 (8.7)
[11]; high dose 6400 ng/day
  Cohen's d relative to placebo, HRSD-17 item 4: 1.60
  Cohen's d relative to placebo, HRSD-17 score: 0.82
  decrease in HRSD-17 item 4 (initial insomnia) from baseline: 1.4 (0.25)
[11]; low dose 3200 ng/day intranasal
  decrease in average HRSD-17 score from baseline (standard deviation): 18.3 (7.7)
[11]; low dose 3200 ng/day
  Cohen's d relative to placebo, HRSD-17 item 4: 0.39
  Cohen's d relative to placebo, HRSD-17 score: 0.86
  decrease in HRSD-17 item 4 (initial insomnia) from baseline: 0.6 (0.3)
[11]; nasal administration
  time to effect on a depressive disorder or its symptoms: ≤ 1 week

## CN(C)CCC[C@@]1(c2ccc(F)cc2)OCc2cc(C#N)ccc21 [escitalopram]
[12]; [14]
  rate of remission of the depression: 61.5%
  remission of insomnia: 50.0%
[12]; [15]
  rate of remission of the depression: 33.3%
  remission of insomnia: 7.7%
